Data set [1] has as its target T1, Neuromedin-U receptor 1 (Homo sapiens, UniProt Q9HB89).
T1 sequence (Q9HB89 whole entry): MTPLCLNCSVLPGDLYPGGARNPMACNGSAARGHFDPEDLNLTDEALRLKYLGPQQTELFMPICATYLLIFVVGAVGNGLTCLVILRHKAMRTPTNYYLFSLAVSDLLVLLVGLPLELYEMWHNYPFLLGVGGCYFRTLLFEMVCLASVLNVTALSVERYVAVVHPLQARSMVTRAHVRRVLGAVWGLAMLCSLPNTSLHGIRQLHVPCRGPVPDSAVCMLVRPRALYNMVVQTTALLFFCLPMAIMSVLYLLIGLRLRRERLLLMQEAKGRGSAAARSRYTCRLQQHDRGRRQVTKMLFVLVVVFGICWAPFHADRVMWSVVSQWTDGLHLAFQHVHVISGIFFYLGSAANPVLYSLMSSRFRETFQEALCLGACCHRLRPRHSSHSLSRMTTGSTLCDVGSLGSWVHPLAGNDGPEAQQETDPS
Description: Agonist activity at human NMUR1 expressed in CHO cells at 10 nM by calcium mobilization assay relative to control. It is filed as cell-based. Conditions: read-out: Activity. In general terms: Calcium assays in cells follow changes in intracellular calcium, usually with a dye or a luminescent sensor.

The nature of data set [2]: Half life of the compound in 25% human serum. It is filed as ADME, cell-free.
The target of data set [3] is T1, Neuromedin-U receptor 1. Description: Partial agonist activity at human NMUR1 expressed in CHO cells by calcium mobilization assay. The class given is functional, cell-based.
In data set [4] the target is T2, Neuromedin-U receptor 1 (Homo sapiens) (UniProt Q9HB89).
T2 sequence (whole entry): T1 sequence (Q9HB89 whole entry)
Description: Partial agonist activity at human NMUR1 expressed in CHO cells assessed as intrinsic activity at 10^-6 to 10^-12 M by calcium mobilization assay relative to control. The class given is functional, cell-based. Conditions: filed as partial agonist, dose pM 1-1000000.

Data set [5] in a line: Stability of the compound in 25% human serum assessed as residual rate at 50 uM incubated for 10 mins at 37 degreeC. The class given is ADME, cell-free. The note with it: read-out: Stabilty.
The target in data set [6] is T3, Neuromedin-U receptor 2 (Homo sapiens, UniProt Q9GZQ4). Description: Agonist activity at human NMUR2 expressed in CHO cells at 10 nM by calcium mobilization assay relative to control. It is filed as cell-based. Conditions: read-out: Activity.
T3 sequence (Q9GZQ4 whole entry): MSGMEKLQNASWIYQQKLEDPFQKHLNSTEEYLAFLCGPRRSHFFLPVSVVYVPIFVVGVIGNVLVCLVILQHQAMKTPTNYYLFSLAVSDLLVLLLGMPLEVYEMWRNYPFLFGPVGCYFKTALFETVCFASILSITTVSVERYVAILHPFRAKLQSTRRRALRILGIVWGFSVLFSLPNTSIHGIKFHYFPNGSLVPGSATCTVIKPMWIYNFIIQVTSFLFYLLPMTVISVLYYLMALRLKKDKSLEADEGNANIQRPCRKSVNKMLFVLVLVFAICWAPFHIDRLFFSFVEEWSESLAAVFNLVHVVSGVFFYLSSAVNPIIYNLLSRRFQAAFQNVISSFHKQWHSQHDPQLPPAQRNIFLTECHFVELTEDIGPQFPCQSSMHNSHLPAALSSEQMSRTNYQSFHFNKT
Data set [7] has as its target T3, Neuromedin-U receptor 2. Description: Agonist activity at human NMUR2 expressed in CHO cells at 10 nM by calcium mobilization assay. It is filed as cell-based. Conditions: 0.01 µM.
Data set [8] addresses T1, Neuromedin-U receptor 1. Description: Agonist activity at human NMUR1 expressed in CHO cells at 10 nM by calcium mobilization assay. It is filed as cell-based. Conditions: 0.01 µM.
Data set [9] concerns the target T1, Neuromedin-U receptor 1. Description: Agonist activity at human NMUR1 expressed in CHO cells at 1000 nM by calcium mobilization assay relative to control. It is filed as cell-based. The note with it: read-out: Activity.
Data set [10] addresses T3, Neuromedin-U receptor 2. Description: Agonist activity at human NMUR2 expressed in CHO cells at 100 nM by calcium mobilization assay. The note with it: 0.1 µM. The class given is cell-based.
In data set [11] the target is T1, Neuromedin-U receptor 1. Description: Agonist activity at human NMUR1 expressed in CHO cells at 100 nM by calcium mobilization assay relative to control. The note with it: read-out: Activity. The class given is cell-based.
Data set [12] can be described thus: Stability of the compound in 25% human serum assessed as intact residual rate at 50 uM incubated for 180 mins at 37 degreeC. The class given is ADME, cell-free. The note with it: read-out: Stabilty.
Data set [13] is described as follows: Drug metabolism in 25% human serum assessed as M2 metabolite formation at 50 uM incubated for 180 mins at 37 degreeC by HPLC analysis. The note with it: 3 h. The class given is ADME, cell-free.
The target of data set [14] is T1, Neuromedin-U receptor 1. Description: Agonist activity at human NMUR1 expressed in CHO cells assessed as intrinsic activity at 10^-6 to 10^-12 M by calcium mobilization assay relative to control. The class given is cell-based. Conditions: read-out: Intrinsic activity.
Data set [15] deals with T1, Neuromedin-U receptor 1. Description: Agonist activity at human NMUR1 expressed in CHO cells by calcium mobilization assay. The class given is cell-based.
A short description of data set [16]: Selectivity index, ratio of EC50 for agonist activity for human NMUR2 expressed in CHO cells to EC50 for agonist activity for human NMUR1 expressed in CHO cells by calcium mobilization assay. The class given is cell-based.
The target of data set [17] is T3, Neuromedin-U receptor 2. Description: Agonist activity at human NMUR2 expressed in CHO cells by calcium mobilization assay. The class given is cell-based.
Data set [18] can be described thus: Drug metabolism in 25% human serum assessed as M1 metabolite formation at 50 uM incubated for 180 mins at 37 degreeC by HPLC analysis. The note with it: 3 h. The class given is ADME, cell-free.
Data set [19] has as its target T3, Neuromedin-U receptor 2. Description: Agonist activity at human NMUR2 expressed in CHO cells at 1000 nM by calcium mobilization assay relative to control. The note with it: read-out: Activity. It is filed as cell-based.

A word on the half-life: it is the time needed for the level to fall by half in the phase considered. Read a low half-life as rapid decline. The term EC50 denotes the concentration that produces a half-maximal response.

Starred links: 1 amine or outer side, 2 acyl side, 3 side chain; linkers in the order of their positions; H or OH if unused. Non-standard residues stand in square brackets, D forms with d. Residues, ends and D or L forms follow the SMILES beside them. *: point of attachment. X1 = O=C([C@H](Cc1ccc(Cc2ccccc2)cc1)N[*:1])[*:2]; Acetyl(2-naphthyloxy) = O=C(COc1ccc2ccccc2c1)*; Propanoyl(3-(3-pyridyl)) = O=C(CCc1cccnc1)*; Bip = N[C@@H](Cc1ccc(-c2ccccc2)cc1)C(=O)O; αMeW = C[C@](N)(Cc1c[nH]c2ccccc12)C(=O)O; 2Nal = N[C@@H](Cc1ccc2ccccc2c1)C(=O)O; Acetyl(2-thienyl) = O=C(Cc1cccs1)*; αMeF = C[C@](N)(Cc1ccccc1)C(=O)O; Tic = O=C(O)[C@@H]1Cc2ccccc2CN1

Regarding `N=C(N)NCCC[C@H](NC(=O)[C@@H]1CCCN1C(=O)[C@H](CCCNC(=N)N)NC(=O)[C@H](Cc1ccccc1)NC(=O)[C@H](Cc1ccc2ccccc2c1)NC(=O)CCc1cccnc1)C(=O)N[C@@H](CC(N)=O)C(N)=O` ({Propanoyl(3-(3-pyridyl))}-[2Nal]FRPRN-NH2), the activity at 0.01 µM came to 61% at Neuromedin-U receptor 1 [1] and 19% at Neuromedin-U receptor 2 [6]. The molecule also displayed a half-life in data set [2] of 20 min. At Neuromedin-U receptor 1 [3], the EC50 came to 1.7 nM. The Intrinsic activity in data set [4] came to 71%. In addition, in data set [5], the remaining at 10 min, 50 µM came out at 35%.
On to `C[C@@](Cc1ccccc1)(NC(=O)[C@H](Cc1ccc2ccccc2c1)NC(=O)CCc1cccnc1)C(=O)N[C@@H](CCCNC(=N)N)C(=O)N1CCC[C@H]1C(=O)N[C@@H](CCCNC(=N)N)C(=O)N[C@@H](CC(N)=O)C(N)=O` ({Propanoyl(3-(3-pyridyl))}-[2Nal][αMeF]RPRN-NH2), for which the Activity result on Neuromedin-U receptor 2 [7] and on Neuromedin-U receptor 1 [8] was “Not Active” in each case.
As for `N=C(N)NCCC[C@H](NC(=O)[C@@H]1CCCN1C(=O)[C@H](CCCNC(=N)N)NC(=O)[C@H](Cc1ccc(-c2ccccc2)cc1)NC(=O)COc1ccc2ccccc2c1)C(=O)N[C@@H](CC(N)=O)C(N)=O` ({Acetyl(2-naphthyloxy)}-[Bip]RPRN-NH2), the Activity entry on Neuromedin-U receptor 2 [7] and at Neuromedin-U receptor 1 [8] was “Not Active” in each case. The activity at 1 µM on Neuromedin-U receptor 1 [9] amounted to 28%.
As for `N=C(N)NCCC[C@H](NC(=O)[C@@H]1CCCN1C(=O)[C@H](CCCNC(=N)N)NC(=O)[C@H](Cc1ccc(-c2ccccc2)cc1)NC(=O)[C@H](Cc1c[nH]c2ccccc12)NC(=O)Cc1cccs1)C(=O)N[C@@H](CC(N)=O)C(N)=O` ({Acetyl(2-thienyl)}-W[Bip]RPRN-NH2), on Neuromedin-U receptor 2 [10], the Activity result is “Not Active”. On Neuromedin-U receptor 1 [11], the activity at 0.1 µM was determined as 88%. For the same molecule, in data set [5], the remaining at 10 min, 50 µM was 95%. Also, in data set [12], the remaining at 3 h, 50 µM turned out to be 35%.
In the case of `COc1ccc(C[C@H](NC(=O)[C@H](Cc2c[nH]c3ccccc23)NC(=O)Cc2cccs2)C(=O)N[C@@H](CCCNC(=N)N)C(=O)N2CCC[C@H]2C(=O)N[C@@H](CCCNC(=N)N)C(=O)N[C@@H](CC(N)=O)C(N)=O)cc1` ({Acetyl(2-thienyl)}-WY(Me)RPRN-NH2), the remaining at 10 min, 50 µM in data set [5] was 48%.
For the molecule `N=C(N)NCCC[C@H](NC(=O)[C@@H]1CCCN1C(=O)[C@H](CCCNC(=N)N)NC(=O)[C@H](Cc1ccc(-c2ccccc2)cc1)NC(=O)[C@H](Cc1ccc2ccccc2c1)NC(=O)CCc1cccnc1)C(=O)N[C@@H](CC(N)=O)C(N)=O` ({Propanoyl(3-(3-pyridyl))}-[2Nal][Bip]RPRN-NH2), the Drug metabolism result in data set [13] and in [18] was “Metabolite_Detected” throughout. The Emax at Neuromedin-U receptor 1 [14] is 75%. The activity at 0.01 µM on Neuromedin-U receptor 1 [1] came out at 59%. Also, the EC50 was 3.2 nM on Neuromedin-U receptor 1 [15] and > 1000 nM on Neuromedin-U receptor 2 [17]. In addition, the “Ratio EC50” value in [16] is recorded as > 300. For the same molecule, the remaining at 3 h, 50 µM in [12] turned out to be 84%.
As for `N=C(N)NCCC[C@H](NC(=O)[C@@H]1CCCN1C(=O)[C@H](CCCNC(=N)N)NC(=O)[C@H](Cc1ccc(Cc2ccccc2)cc1)NC(=O)[C@H](Cc1c[nH]c2ccccc12)NC(=O)Cc1cccs1)C(=O)N[C@@H](CC(N)=O)C(N)=O` ({Acetyl(2-thienyl)}-W[X1]RPRN-NH2), on Neuromedin-U receptor 1 [11], the activity at 0.1 µM was determined as 88%. Also, the remaining at 10 min, 50 µM in [5] was 95%.
For the molecule `C[C@@](Cc1c[nH]c2ccccc12)(NC(=O)[C@H](Cc1c[nH]c2ccccc12)NC(=O)Cc1cccs1)C(=O)N[C@@H](CCCNC(=N)N)C(=O)N1CCC[C@H]1C(=O)N[C@@H](CCCNC(=N)N)C(=O)N[C@@H](CC(N)=O)C(N)=O` ({Acetyl(2-thienyl)}-W[αMeW]RPRN-NH2), the remaining at 3 h, 50 µM in data set [12] turned out to be 39%.
Take `N=C(N)NCCC[C@H](NC(=O)[C@@H]1CCCN1C(=O)[C@H](CCCNC(=N)N)NC(=O)[C@@H]1Cc2ccccc2CN1C(=O)COc1ccc2ccccc2c1)C(=O)N[C@@H](CC(N)=O)C(N)=O` ({Acetyl(2-naphthyloxy)}-[Tic]RPRN-NH2): the Emax at Neuromedin-U receptor 1 [14] worked out at 67%. For the same molecule, the activity at 0.01 µM on Neuromedin-U receptor 1 [1] was 30%. In addition, the EC50 on Neuromedin-U receptor 1 [15] turned out to be 30 nM. Further, in data set [16], the “Ratio EC50” value came to 30. The activity at 1 µM on Neuromedin-U receptor 2 [19] was determined as 48%. In addition, in [5], the remaining at 10 min, 50 µM worked out at 64%.
